Measured values published in patent US20230089557A1, “METHODS OF TREATING DLBCL USING BTK INHIBITORS AND COMBINATIONS THEREOF” (BEIGENE SWITZERLAND GMBH, priority 2020, published 2023).

Experiments:
Non-GCB DLBCL PDX models = experiment: Compound 1 efficacy (TGI) in non-GCB DLBCL PDX models by EBV status; type: in vivo, mice; details: p.o. 7.5 mg/kg BID
Source text: DLBCL patient-derived xenografted (PDX) models were established in immunodeficient NCG (NOD-Prkdcem26Cd52Il2rgem26Cd22/NjuCrl) mice. These models were classified into GCB and non-GCB subgroups based on immunohistochemistry (IHC) staining using Hans algorithm. Non-GCB DLBCL PDX models were classified into Epstein-Barr virus (EBV) negative and EBV positive subgroups. For efficacy studies, tumor tissues were inoculated subcutaneously into NCG mice. When tumors reached 100˜200 mm^3, mice were randomized into each group with 7˜10 mice/group based on tumor volume. Compound 1 was formulated with 0.5% methyl cellulose as vehicle and treatment was started on the day of randomized grouping. Compound 1 was administrated p.o., 7.5 mg/(kg body weight), BID. Tumor volumes were measured twice weekly in two dimensions using a caliper, and the volume were expressed in mm^3 using the formula:
V=0.5(a×b^2) where a and b are the long and short diameters of the tumor, respectively.
Tumor growth inhibition (TGI) was calculated using the following formula:
% TGI=100×[1−(treatmentvt−treatmentv0)/(vehiclevt−Vehiclev0)]
Treatmentvt=tumor volume of treatment group at time t.
treatmentv0=tumor volume of treatment group at time of treatment started. […]
Average TGI of each model was used and represented as a dot point in the figure. P value was calculated using two tails t test to compare difference between groups.

R/R non-GCB DLBCL = experiment: Four Compound 1 studies pooled (monotherapy and combination), response by BCL2/MYC expression; type: in vivo, human; details: for BOR / BOR (responders/patients) / OS / PFS: mono- and combination therapies pooled; for overall survival / progression-free survival / ORR / ORR (responders/patients): two monotherapies and two combination therapies
Protocol: A total of 121 patients with R/R non-GCB DLBCL were recruited in four Compound 1 treatment studies that were conducted at a similar time period. Two of the four studies were Compound 1 monotherapy (n=79) and two were Compound 1 combined with an anti-CD20 antibody therapy (n=42). Similar inclusion and exclusion criteria and response evaluation criteria were used across all studies. Fifty-six non-GCB patients were further subtyped by gene expression profiling (GEP) using the HTG EdgeSeq DLBCL Cell of Origin Assay. The expression of approximately 90 lymphoma-associated genes from the HTG GEP assay were analyzed by R package limma for correlation with response to Compound 1 treatment. Seventy-seven patient samples were tested by next-generation sequencing (NGS) with a panel of genes. Chi-square test was used to evaluate the correlation between mutations and the objective response rate (ORR).
Monotherapy schedule 1: Compound 1 was administered orally every day at 160 mg twice daily (BID) in 28-day cycles in patients with R/R non-GCB DLBCL
Monotherapy schedule 2: Compound 1 was administered orally every day in each cycle at 160 mg BID in 28-day cycles in patients with R/R non-GCB DLBCL.
Combination therapy schedule 1: Compound 1 was administered orally every day in each cycle at 160 mg BID in 28-day cycles, in combination with obinutuzumab, in patients with R/R non-GCB DLBCL. Obinutuzumab was administered for up to 6 cycles consistent with the U.S. label regimen (100 mg at Day 1 Cycle 1, 1000 mg at Day 8 and Day 15, 900 mg at Day 2 Cycle 1 followed by 1000 mg on day one of cycles 2-6).
Combination therapy schedule 2: Compound 1 was administrated orally every day in each cycle at 160 mg BID in 28-day cycles, in combination with rituximab, in patients with R/R non-GCB DLBCL. And, rituximab was administered at 375 mg/m2 intravenously on Cycle 1 Days 1, 8, 15, 22, and on Day 1 of Cycles 4, 6, 8, 10. Compound 1 was administered at least 30 minutes prior to the initiation of the rituximab infusion.
A total of 121 patients with non-GCB DLBCL were included for response evaluation. 79 patients were subjected to Compound 1 monotherapies (Monotherapy Schedule 1 or 2), and 42 patients were subjected to Compound 1 plus anti-CD20 antibody Combination therapy (Combination therapy schedule 1 or 2).
56 non-GCB patients were further subtyped by gene expression profiling (GEP) using the HTG EdgeSeq DLBCL Cell of Origin Assay. The expression of approximately 90 lymphoma-associated genes from the HTG GEP assay were analyzed by R package limma for correlation with response to zanubrutinib treatment.

[1] = MYC and BCL2 double expressor (DE) patients

## C=CC(=O)N1CCC([C@@H]2CCNc3c(C(N)=O)c(-c4ccc(Oc5ccccc5)cc4)nn32)CC1 [Compound 1, (S)-7-(1-acryloylpiperidin-4-yl)-2-(4-phenoxyphenyl)-4,5,6,7-tetra-hydropyrazolo[1,5-a]pyrimidine-3-carboxamide]
Non-GCB DLBCL PDX models; EBV negative non-GCB DLBCL models
  TGI (mean±SD): 78.00±43.41%
Non-GCB DLBCL PDX models; EBV positive non-GCB DLBCL models
  TGI (mean±SD): 33.25±22.41%
R/R non-GCB DLBCL; BCL2-high patients
  BOR: 57%
  BOR (responders/patients): 16/28
  OS: 10 m
  PFS: 5.3 m
R/R non-GCB DLBCL; BCL2-low patients
  BOR: 21%
  BOR (responders/patients): 6/28
  OS: 6 m
  PFS: 2.8 m
R/R non-GCB DLBCL; DE patients
  overall survival: 10 months
  progression-free survival: 5.4 months
R/R non-GCB DLBCL; [1]
  ORR: 61%
  ORR (responders/patients): 11/18
R/R non-GCB DLBCL; MYC-high patients
  BOR: 46%
  BOR (responders/patients): 13/28
  OS: 10 m
  PFS: 5.4 m
R/R non-GCB DLBCL; MYC-low patients
  BOR: 32%
  BOR (responders/patients): 9/28
  OS: 7 m
  PFS: 2.9 m
R/R non-GCB DLBCL; non-DE patients
  ORR: 29%
  ORR (responders/patients): 11/38
  overall survival: 7 months
  progression-free survival: 3.6 months
